Data reported in PubChem BioAssay AID463204 (Broad Institute, 2010).
The source made the active and inactive calls.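 How the source made its calls: active means AC50 no more than ten times the top concentration tested, that is within one log above it; inconclusive means flat curve fit with activity between 30% and 70%, or invalid poor fit; inactive means AC50 beyond ten times the top tested dose.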

Tested on: S. cerevisiae Mot1-301 ts growth rescue, BacTiter-Glo ATP luminescence
Assay: restored Mot1-301 yeast growth at 38.5C – whole organism, S. cerevisiae, Mot1-301 ts mutant, luminescence, dose retest, SUMOylation pathway inhibitor project, confirmation (AID 463204);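 further: growth at restrictive 38.5 degrees C of Mot1-301 OY566 strain; actives raise luminescence by restoring growth of the ts mutant at high temperature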

Cc1ccc(C)c(NC(NC(=O)c2ccccn2)C(Cl)(Cl)Cl)c1 (configuration not stated)
AC50: > 42 µM (inactive)

O=C(O)CC(NC(=O)OCc1ccccc1)c1ccc(Br)cc1 (configuration not stated)
AC50: > 42 µM (inactive)

Cc1ccc(O)c(C(=O)CC(=O)c2cccc(F)c2)c1
AC50: 20.7 µM

O=C(O)CCc1ccc(-c2cccs2)n1NC(=O)c1cccs1
AC50: > 42 µM (inactive)

COc1ccc(C(C)=O)cc1CN(c1ccccc1OC)S(=O)(=O)c1cccs1
AC50: > 42 µM (inactive)

CC(C)(C)C1c2[nH]c3ccccc3c2CCN1Cc1cccc(OCCO)c1 (configuration not stated)
AC50: > 42 µM (inactive)

CCS(=O)(=O)c1nc(S(=O)(=O)c2ccc(Cl)cc2)c(N2CCc3ccccc3C2)s1
AC50: > 42 µM (inactive)

CCN1C(=NCC(C)C)N[C@@H](c2cccc(C(F)(F)F)c2)C(C(=O)OC)=C1C
AC50: > 42 µM (inactive)

COc1ccc(CN2CCCCCC2)cc1
AC50: > 42 µM (inactive)

CCC(C)NCCCCOc1cc(C)cc(C(C)C)c1 (configuration not stated)
AC50: > 42 µM (inactive)

CC(C)Cc1cc(CN2CCC(CO)(Cc3ccccc3)CC2)[nH]n1
AC50: > 42 µM (inactive)

COc1ccccc1NC(=O)c1nn(-c2cccc(C(F)(F)F)c2)ccc1=O
AC50: > 42 µM (inactive)

O=C(CSc1cccc[n+]1[O-])N1CCc2ccccc21
AC50: > 42 µM (inactive)

Nc1ccnc(=O)[nH]1
AC50: > 42 µM (inactive)

COC(=O)c1sc2ccccc2c1NC(=O)c1ccc(S(=O)(=O)N2CCCC(C)C2)cc1 (configuration not stated)
AC50: > 42 µM (inactive)

CS(=O)(=O)N(CC(=O)N1CCCCCC1)Cc1ccc(Cl)cc1
AC50: > 42 µM (inactive)

COc1cccc(-n2c(SCC(=O)NC3CCCCC3)nc3n[nH]c(C)c3c2=N)c1
AC50: > 42 µM (inactive)

CCN(CC)C(=O)Cn1c(=O)n(CCCC(=O)NCc2ccccc2)c(=O)c2sccc21
AC50: > 42 µM (inactive)

Cc1cc(Oc2cc(NN3CCCCC3)c([N+](=O)[O-])cc2[N+](=O)[O-])ccc1[N+](=O)[O-]
AC50: > 42 µM (inactive)

O=C(Nc1nnc(-c2ccco2)o1)c1ccc(S(=O)(=O)N2CCCC2)cc1
AC50: > 42 µM (inactive)

COc1ccccc1CNc1ncnc2c1nnn2Cc1ccccc1
AC50: 40.1 µM

CCN1C(=S)N[C@@H](c2cccs2)C(C(=O)OC)=C1C
AC50: > 42 µM (inactive)

CCc1ccc2[nH]c(=O)c(C(c3nnnn3Cc3ccccc3)N3CCOCC3)cc2c1 (configuration not stated)
AC50: > 42 µM (inactive)

COc1cc(C(=O)N/N=C/c2ccccn2)cc(OC)c1OC
AC50: > 42 µM (inactive)

CCCCC(=O)N/N=C(\C)CC(=O)Nc1cc(Cl)ccc1OC
AC50: > 42 µM (inactive)

CCOC(=O)c1ccccc1NC(=O)CSc1ccc(-c2ccccn2)nn1
AC50: > 42 µM (inactive)

COc1ccc(C2C(C(=O)Nc3cc(OC)c(OC)c(OC)c3)c3ccccc3C(=O)N2C)cc1 (configuration not stated)
AC50: > 42 µM (inactive)

CN(C)C(=O)CN1C(=O)c2cccc3cccc1c23
AC50: > 42 µM (inactive)

COc1ccc(C(=O)O)cc1S(=O)(=O)NCCN(C)C
AC50: > 42 µM (inactive)

Cc1ccc2nc(N/N=C/c3ccccc3F)nc(-c3ccccc3)c2c1
AC50: > 42 µM (inactive)

Cc1ccc(C(=O)NC(NC(=O)c2ccc(C)cc2)C(Cl)Cl)cc1
AC50: > 42 µM (inactive)

CCn1nc(CC(=O)Nc2ccc(-n3cnnn3)c(C)c2)c2ccccc2c1=O
AC50: > 42 µM (inactive)

O=C(CSc1ccc(Br)cc1)Nc1ccccc1N1CCOCC1
AC50: > 42 µM (inactive)

C#CCn1c(=NC(=O)CN2C(=O)CCC2=O)sc2cccc(OC)c21
AC50: > 42 µM (inactive)

O=C(NC1CCCCC1)c1ccc2c(=O)n(CC3CCCO3)c(=O)[nH]c2c1 (configuration not stated)
AC50: > 42 µM (inactive)

CC(Oc1ccccc1[N+](=O)[O-])C(=O)N/N=C/c1ccoc1 (configuration not stated)
AC50: > 42 µM (inactive)

Cc1nc(NCCN2CCOCC2)c2nnn(Cc3c(F)cccc3Cl)c2n1
AC50: > 42 µM (inactive)

Cn1c(Cn2nnc3ccccc32)nnc1SCC(=O)c1ccc(F)cc1
AC50: > 42 µM (inactive)

Cc1ccc(NS(=O)(=O)c2ccc(NC(=O)C3CCCO3)cc2)cc1 (configuration not stated)
AC50: > 42 µM (inactive)

O=C(O)/C=C\C(=O)NC1CCCCC1
AC50: > 42 µM (inactive)

COc1ccc(-c2csc(NC(=O)C3CSC4(C)CCC(=O)N34)n2)cc1 (configuration not stated)
AC50: > 42 µM (inactive)

COCC(=O)n1nc(-c2ccc(Cl)cc2)nc1NCc1ccc(F)cc1
AC50: > 42 µM (inactive)

COc1ccc(C(=O)N/C(=C\c2cc(OC)c(OC)cc2[N+](=O)[O-])C(=O)NCCO)cc1
AC50: > 42 µM (inactive)

CN(C(=O)C1CCCO1)c1nnc(-c2cnccn2)s1 (configuration not stated)
AC50: > 42 µM (inactive)

Cc1cc(C)c2c(Cn3ccnc3)cc(=O)oc2c1
AC50: > 42 µM (inactive)

Nc1nnc(CC(=O)N2CCCCC2)s1
AC50: > 42 µM (inactive)

O=C(O)C1CCCCC1C(=O)Nc1ccc(S(=O)(=O)N2CCCC2)cc1 (configuration not stated)
AC50: > 42 µM (inactive)

CCOc1ccc(N(CC)S(=O)(=O)c2cccc3nsnc23)cc1
AC50: > 42 µM (inactive)

O=C(c1cn(-c2ccccc2)nc1-c1cccs1)N1CCOCC1
AC50: > 42 µM (inactive)

CCC(=O)Nc1nc(CC(=O)Nc2ccccc2OC)cs1
AC50: > 42 µM (inactive)

O=C(c1ccc(COc2ccccc2Cl)o1)N1N=C(C(F)F)CC1(O)C(F)F (configuration not stated)
AC50: > 42 µM (inactive)

O=C(Nc1ccc(F)cc1F)N1CCCN(c2ccc(C(F)(F)F)cn2)CC1
AC50: > 42 µM (inactive)

N#Cc1ccc2[nH]c(CO)c(-c3ccccc3)c2c1
AC50: > 42 µM (inactive)

COc1cccc(NC(=O)Nc2cc(C(=O)NC(C)C)ccc2N2CC3CC(C2)c2cccc(=O)n2C3)c1 (configuration not stated)
AC50: > 42 µM (inactive)

c1ccc(-c2cc3ccccc3cn2)cc1
AC50: 35 µM

C[C@H](NC(=O)OC(C)(C)C)C(=O)NCC1CCC(C(=O)N[C@@H](Cc2ccccc2)C(=O)O)CC1 (some centres not stated)
AC50: > 42 µM (inactive)

COc1ccc(-c2c(C)nn3c(C)cc(C)nc23)cc1
AC50: > 42 µM (inactive)

O=C1Nc2ccccc2/C1=C/c1ccc([N+](=O)[O-])cc1
AC50: > 42 µM (inactive)

CSCCC(NC(=O)c1ccco1)C(=O)N1CCN(Cc2ccccc2)CC1 (configuration not stated)
AC50: > 42 µM (inactive)

OC1(c2ccc(F)cc2)CC2CCC(C1)N2Cc1nnnn1C1CCCCC1 (configuration not stated)
AC50: > 42 µM (inactive)

CCOc1ccc(Cl)cc1CNc1nnnn1CC
AC50: > 42 µM (inactive)

CC(OC(=O)c1cnccn1)C(=O)c1ccccc1 (configuration not stated)
AC50: > 42 µM (inactive)

C[C@H]1O[C@H]1P(=O)(O)O
AC50: > 42 µM (inactive)

Cc1ccccc1P(=O)(CO)c1ccccc1C
AC50: > 42 µM (inactive)

COc1ccc(NC(=O)C2CCN(c3cc(C)nc(-c4ccccc4)n3)CC2)cc1
AC50: > 42 µM (inactive)

CC1=C(C(N)=O)C(c2ccccn2)n2nc(SCc3ccccc3Cl)nc2N1 (configuration not stated)
AC50: > 42 µM (inactive)

Cc1ccc(/C=C/C(=O)OCC(=O)N(CC(C)C)c2c(N)n(Cc3ccccc3)c(=O)[nH]c2=O)o1
AC50: > 21 µM (inactive)

O=C(CSc1ncnc2nc[nH]c12)Nc1ccccc1C(F)(F)F
AC50: > 42 µM (inactive)

Cc1cc2c(cc1C)-c1nnc(-c3ccc4ccccc4n3)n1C(C)(C)C2
AC50: > 42 µM (inactive)

O=C(Nc1ccncc1Cl)c1ccncc1
AC50: > 42 µM (inactive)

COc1ccc(C(=O)Sc2ccc(Cl)cc2)cc1OC
AC50: > 42 µM (inactive)

C/C(=N\NC(=O)Cc1csc(N2CCOCC2)n1)c1ccccc1
AC50: > 42 µM (inactive)

CCCN1C(=O)c2ccc(C(=O)Nc3nccs3)cc2C1=O
AC50: > 42 µM (inactive)

CC(=O)/C=C/n1c(=S)oc2ccccc21
AC50: 11.3 µM

O=C(COC(=O)c1c(F)cccc1F)c1ccc[nH]1
AC50: > 42 µM (inactive)

Cc1nc(CC(=O)N/N=C/c2ccc(OCC(=O)O)cc2)cs1
AC50: > 42 µM (inactive)

CC(=O)N(C(C)=O)C1=C(C#N)C2(CCCCC2)Cc2ccccc21
AC50: > 42 µM (inactive)

CN(C)c1ccnc2sc3c(NCC(O)CO)ncnc3c12 (configuration not stated)
AC50: > 42 µM (inactive)

Cc1cnc(NC(=O)CN2CCN(c3ccccc3F)CC2)s1
AC50: > 42 µM (inactive)

O=C(c1cccs1)N(C(=O)c1cccs1)c1ccc(Br)cn1
AC50: 1.35 µM

CCCCCC(=O)Nc1nnn(CCC)n1
AC50: > 42 µM (inactive)

O=C(CN(CC1CCCO1)C(=O)CNS(=O)(=O)c1ccc(F)cc1)NCc1ccccc1 (configuration not stated)
AC50: > 42 µM (inactive)

COc1nc(-c2ccccc2)ccc1-c1noc(-c2ccccc2)n1
AC50: > 42 µM (inactive)

CC(C)(C)c1ccc(CN(Cc2ccccc2)C(c2ccccn2)c2nnnn2C(C)(C)C)cc1 (configuration not stated)
AC50: > 42 µM (inactive)

O=C(OCCCN=C1NS(=O)(=O)c2ccccc21)c1cccs1
AC50: > 42 µM (inactive)

CCOC(=O)C1(CCOc2ccccc2)CCN(Cc2cccc(OC)c2O)CC1
AC50: > 42 µM (inactive)

CCn1c(SCC(=O)N/N=C/c2ccccc2OCC(=O)O)nnc1-c1ccc(C(C)(C)C)cc1
AC50: 32.7 µM

O=C(O)CNS(=O)(=O)Cc1ccccc1
AC50: > 42 µM (inactive)

CN(C(=O)c1ccc(-c2nn(C)c(=O)c3ccccc23)cc1)C1CCCCC1
AC50: > 42 µM (inactive)

O=C(Nc1ccc([N+](=O)[O-])cn1)C1CC1
AC50: > 42 µM (inactive)

Cc1cc(Nc2nc3c(c(=O)n(C)c(=O)n3C)n2C)n(-c2ccc(Cl)cc2)n1
AC50: > 42 µM (inactive)

COc1cc(C(=O)NCCOc2cc(C)cc(C)c2)cc(OC)c1OC
AC50: > 42 µM (inactive)

CN1C(=O)C(=Cc2ccc(N3CCCCC3)o2)C(=O)N(C)C1=S
AC50: > 42 µM (inactive)

CCOc1ccc(C(=O)NNC2CC(=O)N(CCc3ccccc3)C2=O)cc1OC (configuration not stated)
AC50: > 42 µM (inactive)

COc1ccc(OC)c(CCNC(=O)c2ccc3c(c2)N(Cc2ccc(F)cc2)CCS3)c1
AC50: > 42 µM (inactive)

CC(C)c1cc(N2CCOCC2)n2ncc(-c3ccccc3)c2n1
AC50: > 42 µM (inactive)

CC(C)(C)C(=O)C(Cl)C(=O)Nc1ccccc1 (configuration not stated)
AC50: 3.35 µM

CCOc1ccc(N(C(C)C(=O)NC(C)CC)S(C)(=O)=O)cc1 (configuration not stated)
AC50: > 42 µM (inactive)

CN(C)S(=O)(=O)N1CCc2ccccc2C1
AC50: > 42 µM (inactive)

O=C(Nc1ccc(S(=O)(=O)NC2=NCCCCC2)cc1)c1ccc(C(F)(F)F)cc1
AC50: > 42 µM (inactive)

CCN1CCN(CC(=O)N2N=CCC2c2ccccc2)CC1 (configuration not stated)
AC50: > 42 µM (inactive)

CCc1ccccc1NC(=S)NNC(=O)c1ccccc1Cl
AC50: > 42 µM (inactive)
